Experimental data from patent US20160000796A1, “PHARMACEUTICAL COMPOSITION FOR USE IN PREVENTION OR TREATMENT OF CANCER” (priority 2013, published 2016).

Legend:
[1] = test system: HTLV-1; assay: Measurement of amount of virus (HTLV-1 P19 ELISA), MT2; format: cell-based, human T-cell leukemia virus type 1; conditions: 100 μM, Day 0, 2, 4, 7, compared among six NRTIs
Method: (§1) HTLV-1-producing cell lines, MT2 (transformant with HTLV-1, JCRB cell No: JCRB1210) and HUT102 (ATL-derived cell line, ATCC No: TIB-162), were used.
(§2) Each nucleoside analogue reverse transcriptase inhibitor was added to the medium for cells at a final concentration of 100 μM. Cells were seeded on a 96-well plate at a concentration of 1×10^4 cells/100 μL/well and cultured for 0 hour (Day 0), 48 hours (2 days), 96 hours (4 days) or 168 hours (7 days). At each time point, the medium was collected. The amount of virus contained in the medium collected at each time point (pg/mL) was measured by HTLV-1 P19 ELISA kit (manufactured by Zeptometrix).

[2] = test system: HTLV-1; assay: Measurement of amount of virus (HTLV-1 P19 ELISA), HUT102; format: cell-based, human T-cell leukemia virus type 1; conditions: 100 μM, Day 0, 2, 4, 7, compared among six NRTIs
Method: as §1, §2

[3] = test system: ED40515 (+) (non-virus-producing ATL cell line); assay: Cellular proliferation (MTS assay), ED40515 (+); format: cell-based
Method: (§3) Each nucleoside analogue reverse transcriptase inhibitor was added to the medium for cells at a final concentration of 100 μM. Cells were seeded on a 96-well plate at a concentration of 1×10^4 cells/100 μL/well and cultured for 4 hours (Day 0), 48 hours (Day 2) or 96 hours (Day 4). A medium added DMSO (solvent control) alone was used as a control. Cellular proliferation was examined by MTS assay. Specifically, after the cells were cultured for a predetermined time, a reagent for cellular proliferation test, Aqueous One Solution Cell Proliferation (trade name, manufactured by Promega), was added to the cells. Four hours later, absorbance at 490 nm was measured. The cellular proliferation was represented by a ratio relative to that of the control (solvent control) on Day 0 that was regarded as 1.
This example used HTLV-1-infected cell lines (non-virus-producing ATL cell lines): ED40515 (−), ED40515 (+), and ATL43T (all were provided by Prof. Michiyuki Maeda who produced the cells); and SYK-11L (+) (prepared in the laboratory of the inventors).
The six types of nucleoside analogue reverse transcriptase inhibitors as used in Example 1 were used and cellular proliferation was examined in the same manner as in Example 1. […]

[4] = test system: SUDHL6 (non-HTLV-1-infected cell line); assay: Cellular proliferation (MTS assay), SUDHL6; format: cell-based; conditions: 100 μM
Method: as §3
This example used non-HTLV-1-infected cell lines: Jurkat (cell line derived from human T-cell leukemia, ATCC No: TIB-152), Kit225 (cell line derived from chronic T-cell leukemia, established in the laboratory of the inventors, Blood. 1987 October; 70 (4): 1069-72.), H9 (cell line derived from cutaneous T-cell lymphoma, ATCC No: HTB-176) and SUDHL6 (cell line derived from diffuse B cell lymphoma).
The six types of nucleoside analogue reverse transcriptase inhibitors as used in Example 1 were used and cellular proliferation was examined in the same manner as in Example 1.

[5] = test system: ATL cell line, ED40515 (−); assay: Chromosome double-strand break (Giemsa chromosome specimens), ED40515 (−); format: cell-based; conditions: 48 hours, abacavir 10-100 μM, zidovudine 10 or 100 μM
Method: (§4) Abacavir was added to an ATL cell line, ED40515 (−), at a concentration of 0 μM (DMSO was added instead of abacavir), 10 μM, 25 μM, 50 μM, 75 μM or 100 μM. After the 48 hours culture, the cells were fixed by Carnoy and stained with Giemsa to prepare chromosome specimens in accordance with conventional methods. Similarly, zidovudine was added to ED40515 (−) at a concentration of 10 μM or 100 μM, and abacavir was added to a non-ATL cell line, Jurkat, at a concentration of 100 μM, and chromosome specimens were prepared. Chromosome images (100 or more images per group) were observed by an optical microscope. The cells were determined as being positive for double-strand break (DSB) when at least one chromosome break was found.

[6] = test system: non-ATL cell line, Jurkat; assay: Chromosome double-strand break (Giemsa chromosome specimens), Jurkat; format: cell-based, human; conditions: 100 μM, 48 hours
Method: as §4

[7] = test system: TDP1-knocked-down cells (Jurkat); assay: Cellular proliferation (MTS) of TDP1-knocked-down cells; format: cell-based, human; conditions: TDP1 siRNA-introduced Jurkat versus control siRNA-introduced cells; 300 μM; 48 hours
Method: The cells were cultured for 48 hours. MTS assay was performed using a reagent for cellular proliferation test, Aqueous One Solution Cell Proliferation (trade name, manufactured by Promega), in the same manner as in Example 1.

[8] = test system: NCI_H522 (lung cancer cell line lacking TDP1 expression); assay: Cellular proliferation (MTS) of lung cancer cell line NCI_H522; format: cell-based; conditions: 100, 200 or 300 μM, 72 hours
Method: Lung cancer cell lines lacking TDP1 expression, HOP—62 and NCI_H522, were used. NCI_H1299, a lung cancer cell line expressing TDP1, was used as a control. HOP—62 and NCI_H522 were provided by Dr. Pommier (DNA Repair. 2014 January; 13: 1-9).
Abacavir was added to each of the cell lines at a concentration of 0 μM (DMSO was added instead of abacavir), 100 μM, 200 μM or 300 μM. The cells were seeded on a 96-well plate at a concentration of 3×10^3 cells/100 μL/well and cultured for 4 hours or 72 hours. After the culture of a predetermined time, MTS assay was performed using a reagent for cellular proliferation, test, Aqueous One Solution Cell Proliferation (trade name, manufactured by Promega), in the same manner as in Example 1. The cellular proliferation was represented by a ratio relative to that of the control (solvent control) on Day 0 that was regarded as 100%.

[9] = test system: HTLV-1; conditions: Non Patent Literature 5; cited from earlier work

## Nc1nc(NC2CC2)c2ncn([C@H]3C=C[C@@H](CO)C3)c2n1 [abacavir, (−)-(1S,4R)-4-[2-amino-6-(cyclopropylamino)-9H-purin-9-yl]-2-cyclopentene-1-methanol]
[1]
  viral production (amount of virus in the medium): most strongly suppressed
[2]
  viral production (amount of virus in the medium): most strongly suppressed
[3]; 100 μM
  cellular proliferation: strong suppressive effect
[3]; 10-100 μM, Day 0, 2, 4
  cellular proliferation, dose dependence: suppressed cellular proliferation of all the cell lines in a dose-dependent manner
[4]
  cellular proliferation: did not exhibit a suppressive effect
[5]
  ratio of double-strand break-positive cells: increased the ratio of double-strand break-positive cells in a dose-dependent manner
[6]
  ratio of double-strand break-positive cells: did not induce double-strand break
[7]
  cellular proliferation relative to abacavir-non-treated cells (100%): significantly lower
[8]
  cellular proliferation: suppressed cellular proliferation of HOP—62 and NCI_H522 lacking TDP1 expression in a concentration dependent manner
[9]
  anti-HTLV-1 effect: anti-HTLV-1 effect
